Measurements: ChEMBL document CHEMBL1151978, “Epiquinamide: a poison that wasn't from a frog that was” (J Nat Prod, 2009)
The source made the active and inactive calls. The rule behind the calls is not given here.

Tests used:
[1] = target: T1, Neuronal acetylcholine receptor; alpha4/beta2 (Rattus norvegicus) (UniProt P09483+P12390); assay: Displacement of [3H]epibatidine from alpha4beta2 nicotinic acetylcholine receptor in rat cerebral cortical membrane at 100 uM; assay type: cell membranes
[2] = target: T2, Neuronal acetylcholine receptor; alpha3/beta4 (Rattus norvegicus) (UniProt P04757+P12392); assay: Inhibition of rat alpha3beta4 nicotinic acetylcholine receptor activation expressed in HEK293 cells assessed as intracellular calcium level at 500 uM by fluorescence assay; assay type: cell-based
[3] = target: T1, Neuronal acetylcholine receptor; alpha4/beta2 (Rattus norvegicus); assay: Displacement of [3H]epibatidine from alpha4beta2 nicotinic acetylcholine receptor in rat cerebral cortical membrane up to 100 uM; assay type: cell membranes
[4] = target: T2, Neuronal acetylcholine receptor; alpha3/beta4 (Rattus norvegicus); assay: Inhibition of rat alpha3beta4 nicotinic acetylcholine receptor activation expressed in HEK293 cells assessed as intracellular calcium level up to 100 uM by fluorescence assay; assay type: cell-based

O=[N+]([O-])[C@H]1CCCN2CCCC[C@H]12
Activity [1]: inactive
Activity [2]: inactive

O=C(O)[C@@H]1CCCN2CCCC[C@H]12
Activity [3]: inactive
Activity [4]: inactive
